In patent publication US6605603B1, “Uses of 1-amino-3-(N,N-dimethylamino)-propylidene-1,1-bisphosphonic acid” (Gador, S.A., priority 1998, dated 2003):
Entries after “also recorded” stand apart in the source; their conditions may differ. Marks after values point to notes of the source that are not given here.

Experiments:
[1] = test system: Osteoblast-like rat osteosarcoma cells (ROS17/2.8); experiment: Determination of osteocalcin synthesis (radio-immunoassay of OC released into the medium); type: cell-based; settings: for order of potency relative to 1,25(OH)2D3 (induction of OC synthesis): 1,25(OH)2D3 = 1.0; for effectiveness on OC synthesis compared with the steroid hormone 1,25(OH)2D3 / stimulation of OC synthesis: 72 hours incubation
Description: Cells were grown by 72 hours in the absence (control) or presence of the indicated concentrations of 1α, 25-dihydroxy-vitamin D3[1,25(OH)2D3], EHDP, APD, OPD or NH2-OPD. Then osteocalcin (OC) released into the medium was quantitated as described in Example 4. Data are the average±SD of 3 independent experiments performed by triplicate.
(§1) Osteoblast-like rat osteosarcoma cells (ROS17/2.8) were cultured as monolayers at 37° C. in Dulbecco's modified Eagle's medium (DME) containing 10% fetal bovine serum under humidified air (5.5% CO2). After 48 hours, medium was changed to DME containing 1% fetal bovine serum. Unless otherwise stated, cells were allowed to grow until confluence (4-5 days after plating).
Osteoblasts grown by 48 hours in multiwells were changed to Dulbecco's modified Eagle's medium containing 1% fetal bovine serum plus the indicated concentration of BP, 10^−8 M 1,25(OH)2D3 (positive control), or vehicle alone, and then allowed to grow for an additional period of 72 hours. The medium from each well was collected and stored frozen at −80° C. until use for osteocalcin measurements. Osteocalcin (OC) was quantitatively measured by radio-immunoassay using a commercially avalaible kit (Osteocalcin DSL-6900, Diagnostic Systems Laboratories Inc., Webster, Tex., USA) according to manufacturer's instructions. Osteocalcin values were corrected for total cellular protein content.

[2] = test system: Osteoblast-like rat osteosarcoma cells (ROS17/2.8); experiment: Intracellular calcium measurements (Fura-2 fluorimetry), with or without VDCC blockers, PLC inhibitors or thapsigargin; type: cell-based; parameters: Δ[Ca^2+]i: unit not given here; settings: for Ca^2+ response after depletion of Ca^2+ stores with thapsigargin: 1 μM thapsigargin, bisphosphonate 10 nM; for % Inhibition (decrease in Δ[Ca^2+]i) / [Ca^2+]i / Δ[Ca^2+]i: 10^−8 M; for rapid (1 min) increase in cytosolic Ca^2+ after pretreatment with PLC inhibitors: U73122 (2 μM) or neomycin (0.5 mM); for rapid (1 min) increase in cytosolic Ca^2+ after pretreatment with U73343: U73343, analogue of U73122 devoid of effect on PLC, not shown; for reduction of the induced [Ca^2+]i increase by VDCC blockers: pretreatment with nifedipine (2 μM) or verapamil (5 μM)
Description: as §1
Intracellular Ca^2+ changes were monitored by using the Ca^2+-sensitive fluorescent dye Fura-2 as previously described (Vasquez et al., 1998, J. Biol. Chem. 273, 33954-33960). Cell dye loading was achieved by incubating the cells in buffer A containing (in mM): 138 NaCl, 5 KCl, 1 MgCl2, 5 glucose, 10 HEPES (pH 7.4), 1.5 CaCl2, plus 0.1% bovine serumalbumin (BSA), 2 μM of the pentaacetoxymethylester derivative (membrane permeable) Fura-2/AM and 0.012% pluronic F-127, in the dark during 40 min at room temperature (20-25° C.) in order to minimize dye compartmentalization. Unloaded dye was washed out and cells were stored in buffer B (buffer A without BSA, Fura-2/AM and pluronic F-127) in the dark (room temperature) by at least 30 min prior to use, to allow for complete intracellular dye deesterification. For fluorescence measurements the coverslips containing dye-loaded cells were mounted into quartz cuvettes and introduced into the thermostatized (37° C.) sample compartment of a SLM Aminco 8100 spectrofluorimeter. Fura-2 intracellular fluorescence intensity was monitored at an emission wavelength of 510 nm (8 nm bandpass) by alternating with an electronically controlled chopper (300 Hz) the excitation wavelength between 340 and 390 nm employing a dual excitation monochromator at 4 nm bandpass. Signals from short and long wavelength were ratioed (R=340/390) thus making the measurement independent of variations in cellular dye content, dye leakage or photobleaching. Calibration of Fura-2 signal to calculate [Ca^2+]i values was performed for each coverslip as follows: maximal (Rmax) and minimal (Rmin) intracellular dye fluorescence signals were determined by adding 5 μM ionomycin plus 3 mM Ca^2+ and 10 mM EGTA (pH 7.0) plus 10 mM Tris-base (pH 9.0), respectively.
[Ca^2+]i=Kd(R−Rmin)/(Rmax−R)×β
where R is the ratio of Fura-2 fluorescence at the selected wavelengths, Rmax and Rmin represent ratios from Ca^2+ saturated and Ca^2+ free intracellular dye, respectively, and β is the ratio between the specific fluorescence of the Ca^2+ free and Ca^2+ bound forms of the dye at the longer wavelength (Sf2/Sb2).
Fura-2 loaded osteoblasts were treated with vehicle (buffered saline solution, Basal), OPD (10−8 M) or NH2-OPD (10^−8 M) and intracellular Ca^2+ concentration ([Ca^2+]i) was measured as described. Given are [Ca^2+]i values corresponding to the plateau phase (5 min after BP exposure; see FIG. 3) of the BP-induced Ca^2+ response. When used, both nifedipine (2 μM) and verapamil (5 μM) were added 3 min before stimulation. Data are the average of 5 independent [Ca^2−]i recordings±sd. p values (*p<0.001; **p<0.01) are given for significant differences respect to basal. Percent (%) inhibition refers to the decrease in Δ[Ca^2+]i.
Fura-2 loaded cells were treated with vehicle (buffered saline solution, Basal), OPD (10^−8 M) or NH2-OPD (10^−8 M) and intracellular Ca^2+ concentration ([Ca^2+]i) was measured as described. Unless otherwise indicated, [Ca^2+]i stimulation was evaluated at the plateau phase of the BP-induced response (see FIG. 3). When used, the PLC inhibitors U73122 (2 μM) or neomycin (0.5 mM, data in parentheses) were added into the measurement cuvette 3 min before stimulation. In the PLC-inhibition assay [Ca^2+]i values measured at 1- and 5-min. after stimulation are given. Results are expressed as percent of control (100%) to allow comparison among different assay conditions, and are the average of 3 independent experiments±sd. *p<0.001; **p<0.01. Percent (%) inhibition refers to the decrease in Δ[Ca^2+]i.

bone resorption = settings: Van Beek E. et al., 1996, J. Bone Miner. Res. 11, 1492-1497; cited from earlier work
[3] = U73122 (2 μM), 1 min after stimulation
[4] = U73122 (2 μM), 5 min after stimulation
[5] = neomycin (0.5 mM, data in parentheses), 1 min
[6] = neomycin (0.5 mM, data in parentheses), 1 min after stimulation
[7] = neomycin (0.5 mM, data in parentheses), 5 min
[8] = neomycin (0.5 mM, data in parentheses), 5 min after stimulation
[9] = plateau phase (5 min), nifedipine (2 μM) pretreatment
[10] = plateau phase (5 min), nifedipine (2 μM) pretreatment 3 min before
[11] = plateau phase (5 min), no pretreatment, basal 135 ± 6
[12] = plateau phase (5 min), no pretreatment, difference to basal
[13] = plateau phase (5 min), verapamil (5 μM) pretreatment
[14] = plateau phase (5 min), verapamil (5 μM) pretreatment 3 min before
[15] = plateau phase, no PLC inhibitor
[16] = plateau phase, no PLC inhibitor, difference to control (100%)

| SMILES | order of potency relative to 1,25(OH)2D3 (induction of OC synthesis) ([1]; 10^−8 M, 72 hours) | time-to-peak of cytosolic Ca^2+ change ([2]; 10 nM) [s] | effectiveness on OC synthesis compared with the steroid hormone 1,25(OH)2D3 [1] | maximal change in cytosolic Ca^2+ relative to 1,25(OH)2D3 ([2]; 10 nM) | stimulation of OC synthesis [1] | Ca^2+ response after depletion of Ca^2+ stores with thapsigargin [2] | % Inhibition (decrease in Δ[Ca^2+]i) ([2]; U73122 (2 μM), 1 min) | [Ca^2+]i [2, 3] | % Inhibition (decrease in Δ[Ca^2+]i) ([2]; U73122 (2 μM), 5 min) | [Ca^2+]i [2, 4] | % Inhibition (decrease in Δ[Ca^2+]i) [2, 5] | [Ca^2+]i [2, 6] | % Inhibition (decrease in Δ[Ca^2+]i) [2, 7] | [Ca^2+]i [2, 8] | % Inhibition (decrease in Δ[Ca^2+]i) [2, 9] [%] | Δ[Ca^2+]i [2, 9] | [Ca^2+]i [2, 10] | [Ca^2+]i [2, 11] | Δ[Ca^2+]i [2, 12] | % Inhibition (decrease in Δ[Ca^2+]i) [2, 13] [%] | further results |
| --- | --- | --- | --- | --- | --- | --- | --- | --- | --- | --- | --- | --- | --- | --- | --- | --- | --- | --- | --- | --- | --- |
| C=C1/C(=C\C=C2/CCC[C@]3(C)[C@@H]([C@H](C)CCCC(C)(C)O)CC[C@@H]23)C[C@@H](O)C[C@@H]1O [1,25(OH)2D3, 1α, 25-dihydroxy-vitamin D3] | 1.0 | 90 | – | – | – | – | – | – | – | – | – | – | – | – | – | – | – | – | – | – | release of OC into the culture medium increased respect to control, untreated cells ([1]; 10^−8 M, 72 hours): 100% |
| NCCC(O)(P(=O)(O)O)P(=O)(O)O [APD, pamidronate] | 1.1 | 80 | more effective than the steroid hormone | less effective than the steroid | – | – | – | – | – | – | – | – | – | – | – | – | – | – | – | – | – |
| CC(O)(P(=O)(O)O)P(=O)(O)O [EHDP, etidronate] | 0.85 | 120 | – | less effective than the steroid | – | – | – | – | – | – | – | – | – | – | – | – | – | – | – | – | rate of Ca^2+ elevation, initial phase (0-2 min) ([2]; 10 nM): slowest rate of Ca^2+ elevation |
| CN(C)CCC(N)(P(=O)(O)O)P(=O)(O)O [NH2-OPD, 1-amino-3-(N,N-dimethylamino)-propylidene-1,1-bisphosphonic acid] | 0.85 | 80 | lower than for the secosteroid | less effective than the steroid | markedly stimulated OC synthesis in a dose-dependent fashion | completely blocked | 100% | 101 ± 5% of control (100%) | 100(100) % | 100 ± 11% of control (100%) | 99% | 99 ± 1% of control (100%) | 100(100) % | 100 ± 5% of control (100%) | 90 | 2 | 137 ± 6 nM | 150 ± 3** nM | 15 | 100 | antiresorptive activity (bone resorption): complete loss of antiresorptive activity; also recorded: absolutely devoid of antiresorptive properties; [Ca^2+]i [2, 14]: 133 ± 7 nM; [Ca^2+]i [2, 15]: 137 ± 3** percent of control (100%); Δ[Ca^2+]i [2, 16]: 37; rapid increase in [Ca^2+]i (time of onset) ([2]; Fura-2 loaded cells): 60 s; rapid (1 min) increase in cytosolic Ca^2+ after pretreatment with PLC inhibitors [2]: totally blocked; rapid (1 min) increase in cytosolic Ca^2+ after pretreatment with U73343 [2]: not by U73343; reduction of the induced [Ca^2+]i increase by VDCC blockers [2]: almost completely abolished; return of [Ca^2+]i to near basal levels after peak ([2]; transient Ca^2+ rise, down-turn phase after peak): 1 to 2 min |
| CN(C)CCC(O)(P(=O)(O)O)P(=O)(O)O [OPD, olpadronate] | 1.9 | 60 | more effective than the steroid hormone | equipotent to the steroid | markedly stimulated OC synthesis in a dose-dependent fashion | completely blocked | 100(100) % | 105 ± 3% of control (100%) | 100(100) % | 100 ± 5% of control (100%) | 100(100) % | 98 ± 2% of control (100%) | 100(100) % | 100 ± 8% of control (100%) | 70 | 21 | 156 ± 8** nM | 205 ± 10* nM | 70 | 85 | Δ[Ca^2+]i [2, 13]: 11; [Ca^2+]i [2, 14]: 146 ± 5 nM; [Ca^2+]i [2, 15]: 164 ± 9* percent of control (100%); Δ[Ca^2+]i [2, 16]: 64; rapid (1 min) increase in cytosolic Ca^2+ after pretreatment with PLC inhibitors [2]: totally blocked; rapid (1 min) increase in cytosolic Ca^2+ after pretreatment with U73343 [2]: not by U73343; reduction of the induced [Ca^2+]i increase by VDCC blockers [2]: 70% |
